We go through 13 compounds from ChEMBL document CHEMBL5154800, “Identification of N, C-capped di- and tripeptides as selective immunoproteasome inhibitors” (Eur J Med Chem, 2022).

Non-standard residues stand in square brackets, D forms with d. Residues, ends and D or L forms follow the SMILES beside them. *: point of attachment. 4Amb = NCc1ccc(C(=O)O)cc1; NHtBu = CC(C)(C)N*; ClAc = O=C(CCl)*; βAla = NCCC(=O)O

The nature of test [1]: Selectivity ratio of IC50 for inhibition of 20S proteasome beta 5c subunit (unknown origin) to IC50 for inhibition of 20S proteasome subunit beta-5i.
The subject of test [2] is DOHH-2. Kind of test: Antiproliferative activity against human DOHH-2 cells assessed as growth inhibition at 0.2 uM measured after 72 hrs by MTT assay. The conditions noted are these: read-out: GI. The format is functional.
Test [3] has as its system Pfeiffer. Put plainly: Antiproliferative activity against human Pfeiffer cells assessed as growth inhibition at 0.2 uM measured after 72 hrs by MTT assay. The format is functional. The following applies: read-out: GI. In general terms: Tetrazolium assays rely on reduction of a dye to a coloured formazan, in cell work by metabolically active cells.
Test [4] relates to HCT-116. Put plainly: Antiproliferative activity against human HCT-116 cells assessed as growth inhibition at 0.2 uM measured after 72 hrs by MTT assay. The test is classed as functional. The following applies: read-out: GI.
Test [5] deals with HT-29. Put plainly: Antiproliferative activity against human HT-29 cells assessed as growth inhibition at 0.2 uM measured after 72 hrs by MTT assay. The format is functional. The following applies: read-out: GI.
The test system of test [6] is MCF7. Put plainly: Antiproliferative activity against human MCF7 cells assessed as growth inhibition at 0.2 uM measured after 72 hrs by MTT assay. The format is functional. The conditions noted are these: read-out: GI.

As to `Cc1ccc(CNC(=O)[C@H](Cc2ccccc2)NC(=O)[C@H](CCC(=O)NC(C)(C)C)NC(=O)CCNC(=O)/C(C#N)=C/c2ccc(Cl)cc2)cc1`, in test [1], the Ratio IC50 was 22. Moreover, the inhibition of growth at 0.2 µM in test [2] is less than 20%; in test [3] it was 34%; in test [4], 28%; in test [5], less than 20%; in test [6], 43%.
As for `Cc1ccc(CNC(=O)[C@H](Cc2ccccc2)NC(=O)[C@H](CCC(=O)NC(C)(C)C)NC(=O)[C@H](CNC(=O)CCl)NC(=O)C(=O)c2c[nH]c3ccccc23)cc1`, the Ratio IC50 in test [1] is 2. For the same compound, the inhibition of growth at 0.2 µM in test [2] is less than 20%; in test [3] it was 32%; in test [4], 44%; in test [5] it was less than 20%; in test [6], less than 20%.
For `CC(C)(C)NC(=O)CC[C@H](NC(=O)CCNC(=O)CCl)C(=O)N[C@@H](Cc1ccccc1)C(=O)NCc1ccc(N2CCOCC2)cc1`, the Ratio IC50 in test [1] was determined as 5.
Take `COc1ccc(/C=C(\C#N)C(=O)NCCC(=O)N[C@@H](CCC(=O)NC(C)(C)C)C(=O)N[C@@H](Cc2ccccc2)C(=O)NCc2ccc(C)cc2)cc1`: the Ratio IC50 in test [1] turned out to be 2. Further, the inhibition of growth at 0.2 µM in test [2] was less than 20%; in test [3], 28%; in test [4] it was 32%; in test [5], less than 20%; in test [6], less than 20%.
As for `CC(C)(C)NC(=O)CC[C@H](NC(=O)CCNC(=O)CC#N)C(=O)N[C@@H](Cc1ccc2ccccc2c1)C(=O)NCc1cccc2ccccc12`, the Ratio IC50 in test [1] stood at 52.
On to `Cc1ccc(CNC(=O)[C@H](Cc2ccccc2)NC(=O)[C@H](CCC(=O)NC(C)(C)C)NC(=O)CCNC(=O)/C(C#N)=C/C(C)C)cc1`, for which, in test [1], the Ratio IC50 came to 4. Besides, the inhibition of growth at 0.2 µM is 27% in test [2]; 27% in test [3]; 30% in test [4]; less than 20% in test [5]; less than 20% in test [6].
Consider `CC(=O)N[C@@H](CNC(=O)CCl)C(=O)N[C@@H](CCC(=O)NC(C)(C)C)C(=O)N[C@@H](Cc1ccccc1)C(=O)NCc1ccc(C)cc1`, for which, in test [1], the Ratio IC50 came to 3.
Take `Cc1ccc(/C=C(\C#N)C(=O)NCCC(=O)N[C@@H](CCC(=O)NC(C)(C)C)C(=O)N[C@@H](Cc2ccccc2)C(=O)NCc2ccc(C)cc2)cc1`: in test [1], the Ratio IC50 worked out at 9. For the same compound, the inhibition of growth at 0.2 µM in test [2] is less than 20%; in test [3], 29%; in test [4], 41%; in test [5] it was less than 20%; in test [6], less than 20%.
Turning to `Cc1ccc(CNC(=O)[C@H](Cc2ccccc2)NC(=O)[C@H](CCC(=O)NC(C)(C)C)NC(=O)CCNC(=O)/C(C#N)=C/c2nccs2)cc1`, the Ratio IC50 in test [1] came out at 4. In addition, the inhibition of growth at 0.2 µM was 22% in test [2]; 22% in test [3]; less than 20% in test [4]; less than 20% in test [5]; less than 20% in test [6].
With `COc1cccc(CNC(=O)[C@H](Cc2ccccc2)NC(=O)[C@H](CCC(=O)NC(C)(C)C)NC(=O)CCNC(=O)CCl)c1`, in test [1], the Ratio IC50 worked out at 11.
Same read-out and setting: next, `Cn1ncc2cc(CNC(=O)[C@H](Cc3ccccc3)NC(=O)[C@H](CCC(=O)NC(C)(C)C)NC(=O)CCNC(=O)CCl)ccc21`: 3; `COC(=O)c1ccc(CNC(=O)[C@H](Cc2ccccc2)NC(=O)[C@H](CCC(=O)NC(C)(C)C)NC(=O)CCNC(=O)CCl)cc1` ({ClAc-βAla}-Glu(NHtBu)-Phe-[4Amb]-OMe): 6; `CC(C)c1ccc(CNC(=O)[C@H](Cc2ccccc2)NC(=O)[C@H](CCC(=O)NC(C)(C)C)NC(=O)CCNC(=O)CCl)cc1`: 12.
